{"source": "paper PMC6381024", "about": "“Probing Anti-inflammatory Properties Independent of NF-κB Through Conformational Constraint of Peptide-Based Interleukin-1 Receptor Biased Ligands” (Frontiers in Chemistry, 2019)", "key": {"[1]": {"tested_on": "IL-1β", "test": "qPCR of IL-1β-induced IL-1β expression in HEK-Blue IL-33/IL-1β cells", "format": "cell-based, human", "parameters": "key to qPCR IL-1β (heatmap grade of inhibition): 0: No effect; No effect 01234 Maximum inhibition/efficacy; No effect 01234 Maximum inhibition/efficacy; No effect 01234 Maximum inhibition/efficacy; 4: Maximum inhibition/efficacy", "conditions": "for qPCR IL-1β (heatmap grade of inhibition): HEK-Blue cells, peptide 10^-6 M or Kineret 1.0 mg/mL 30 min, then IL-1β 100 ng/mL 4 h (legend: overnight); for Suppression of IL-1β transcription: HEK blue cells, 10^-6 M pre-treatment, IL-1β stimulation", "experimental": "HEK-Blue IL-33/IL-1β cells were purchased from InvivoGen (San Diego, CA) and used at passages under 15. HEK-Blue cells were cultured in DMEM growth medium supplemented with 10% serum, 50 U/mL penicillin, […] streptomycin, […] zeocin, and […] hygromycin. Cells were grown in regular conditions (37°C, 5% CO2). Cells were serum starved overnight and treated with 100 ng/mL IL-1β for 4 h. Cells were pre-incubated for 30 min with peptides 1, 5, or 6 (10^−6M) or Kineret (1.0 mg/mL) prior to the experiments to reach equilibrium (n = 4 each treatment). Cells were harvested and incubated for 5 min in RIBOzol (AMRESCO). RNA was extracted according to manufacturer's protocol and RNA concentration and integrity were measured with a NanoDrop 1,000 spectrophotometer. A total of 500 ng RNA was used to synthetize cDNA using iScript Reverse Transcription SuperMix (Bio-Rad, Hercules, CA). Quantitative gene expression analysis was performed on Stratagene MXPro3000 (Stratagene) with SYBR Green Master Mix (Bio-Rad). Gene expression levels were normalized to 18S universal primer (Ambion Life Technology, Burlington ON, Canada). Genes analyzed include IL1β, IL6, and PTGHS2 [Prostaglandin H synthetase 2 or cyclooxygenase-2 (COX-2)]. Data are representative of 3 experiments (each with n = 4 per treatment group).\nFigure 8 The effects of peptides 1, 5, and 6 on the expression of pro-inflammatory genes. HEK-Blue cells were pre-treated with peptides 1, 5, and 6 as above and stimulated with IL-1β overnight. qPCR was performed on cell lysates using 18S rRNA as internal control. Graphs are sorted in columns by gene of interest (COX-2, IL-1β, or IL-6) and rows by peptide configuration [(3R) or (3S)]. Results are representative of an average of 3 independent experiments (each with n = 4 per treatment group) and are expressed as a fold-change of the non-stimulated control: ^*p < 0.05, ^**p < 0.01, ^***p < 0.001, ^****p < 0.0001 compared to group treated only with IL-1β. Treatment groups that are not labeled with asterisks are statistically non-significant compared to group treated only with IL-1β."}, "[2]": {"tested_on": "ROCK2", "test": "IL-1β-induced ROCK2 phosphorylation, Western blot in RAW Blue cells", "format": "cell-based", "parameters": "key to Western Blot ROCK2 (heatmap grade of inhibition): 0: No effect; No effect 01234 Maximum inhibition/efficacy; No effect 01234 Maximum inhibition/efficacy; No effect 01234 Maximum inhibition/efficacy; 4: Maximum inhibition/efficacy", "conditions": "for Western Blot ROCK2 (heatmap grade of inhibition): RAW Blue cells, peptide 10^-6 M or Kineret 1.0 mg/mL 30 min, then IL-1β 100 ng/mL 15 min", "experimental": "RAW Blue cells (Invivogen) were grown under standard conditions (37°C, 5% CO2) and maintained under passage number 15. Cells were equilibrated with 1, 5, or 6 (10^−6M) or Kineret (1.0 mg/mL) for 30 min, after which time they were exposed to IL-1β (100 ng/mL) for 15 min. Cells were harvested and lysed on ice for 30 min using a radioimmunoprecipitation assay buffer (Cell Signaling) supplemented with 1 mM phenylmethylsulfonyl fluoride (PMSF) and cOmplete™ EDTA-free protease inhibitor cocktail (Roche, Mannheim, Germany, prepared according to the manufacturer's instructions). Protein concentrations were determined using a Bradford protein assay (Bio-Rad) on 96-well plates with a microplate reader (EnVision Multilabel reader) measuring OD at […]. Bovine serum albumin serial dilutions were used to generate a standard curve. Lysates were then mixed with 4X reducing sample buffer (Bio-Rad).\nLysates were loaded (30 μg protein per well) in a 5% acrylamide stacking gel, and samples were electrophoresed in a 12% acrylamide resolving gel for 1.5 h at 120 V, followed by a 1 h transfer onto polyvinylidene difluoride (PDVF) membranes at 100 V. Membranes were blocked and incubated with 1:1,000 dilution of primary antibody and 1:20,000 dilution of secondary antibodies according to the manufacturer's instructions. Antibodies used were for phospho-p38 MAPK (Cell Signaling, #9211), p38 MAPK (Cell Signaling, #9212), SAPK/JNK (Cell Signaling, #9252), phospho-SAPK/JNK (Cell Signaling, #9251), ROCK2 (Thermo Fisher Scientific PA5-21131), phospho-ROCK2 (Thermo Fisher Scientific PA5-34895), and goat anti-rabbit conjugated to horseradish peroxidase (Abcam, ab6721). Membranes were imaged using an Amersham Imager 600 (GE Healthcare) using Clarity Western ECL Substrate (Bio-Rad). The intensity of protein bands was quantified using ImageJ and standardized using total (phosphorylated + non-phosphorylated) protein content. Data are representative of three independent experiments.\nFigure 7 The effects of peptides 1, 5, and 6 on IL-1β-induced phosphorylation of JNK, ROCK2, and p38. Graphical representations of band density analysis of Western Blots, sorted into columns based on protein of interest (JNK, ROCK2, or p38) and rows by peptide configuration [(3R-) or (3S)]. RAW-blue cells were pretreated with peptides 1, 5, 6, Kineret, or vehicle for 30 min and then stimulated with IL-1β for 15 min. Images of representative Western Blots can be found in the Supplementary Figure 1. Results shown are the average of 3 independent experiments: ^*p < 0.05, ^**p < 0.01, ^***p < 0.001, ^****p < 0.0001 compared to group treated only with IL-1β. Treatment groups that are not labeled with asterisks are statistically non-significant compared to group treated only with IL-1β."}, "[3]": {"tested_on": "IL-1R", "test": "Radioligand displacement of [125I]-peptide 1 in RAW-Blue macrophage cells", "format": "binding", "conditions": "for Percentage of displacement of [125I]-1, relative to unlabeled peptide 1, ±SEM: 100 μM cold peptide pre-incubated 20 min, then 600 nM [125I]-peptide 1 for 2 h at 37°C, gamma counter, mean ± SEM, three independent experiments", "experimental": "Displacement of radiolabeled peptide 1 was performed as described previously (Quiniou et al., [2008]). Briefly, RAW-Blue macrophage cells (InVivogen; San Diego, CA) were pre-incubated for 20 min with 100 μM of non-radiolabeled (“cold”) peptide 1, 5, or 6 followed by incubation for 2 h at 37°C with [^125I]-peptide 1 at 600 nM concentration to ensure maximal specific binding (Quiniou et al., [2008]). Cells were washed four times with PBS buffer and lysed with 0.1 N NaOH/0.1% Triton X-100. Bound radioactivity was measured on cell lysates with a Hidex AMG gamma counter (Hidex; Turku Finland). Data are representative of three independent experiments.\nPeptide 1 is known to bind to IL-1R (Quiniou et al., [2008]). To determine if the Agl and Hgl derivatives occupied the same binding site as peptide 1, a radio-ligand displacement assay was used to determine the extent to which peptides 5 and 6 displaced radiolabeled 1."}}, "data": [{"substance": "H-D-Arg-D-Tyr-(3R,4R)-Hgl-(S)-Val-D-Glu-D-Leu-D-Ala-NH2 [[(3R,4R)-Hgl^3-(S)-Val^4]-1]", "values": [{"measurement": "qPCR IL-1β (heatmap grade of inhibition)", "setting": "[1]", "result": 3}, {"measurement": "Western Blot ROCK2 (heatmap grade of inhibition)", "setting": "[2]", "result": 4}, {"measurement": "Percentage of displacement of [125I]-1, relative to unlabeled peptide 1, ±SEM", "setting": "[3]", "result": "82.12 ± 14.12", "unit": "%"}]}, {"substance": "H-D-Arg-D-Tyr-(3R,4R)-Hgl-D-Val-D-Glu-D-Leu-D-Ala-NH2 [[(3R,4R)-Hgl^3]-1]", "values": [{"measurement": "qPCR IL-1β (heatmap grade of inhibition)", "setting": "[1]", "result": 4}, {"measurement": "Western Blot ROCK2 (heatmap grade of inhibition)", "setting": "[2]", "result": 4}, {"measurement": "Percentage of displacement of [125I]-1, relative to unlabeled peptide 1, ±SEM", "setting": "[3]", "result": "104.6 ± 6.826", "unit": "%"}]}, {"substance": "H-D-Arg-D-Tyr-(3R,4S)-Hgl-(S)-Val-D-Glu-D-Leu-D-Ala-NH2 [[(3R,4S)-Hgl^3-(S)-Val^4]-1]", "values": [{"measurement": "qPCR IL-1β (heatmap grade of inhibition)", "setting": "[1]", "result": 4}, {"measurement": "Western Blot ROCK2 (heatmap grade of inhibition)", "setting": "[2]", "result": 2}, {"measurement": "Percentage of displacement of [125I]-1, relative to unlabeled peptide 1, ±SEM", "setting": "[3]", "result": "58.63 ± 13.45", "unit": "%"}]}, {"substance": "H-D-Arg-D-Tyr-(3R,4S)-Hgl-D-Val-D-Glu-D-Leu-D-Ala-NH2 [[(3R,4S)-Hgl^3]-1]", "values": [{"measurement": "qPCR IL-1β (heatmap grade of inhibition)", "setting": "[1]", "result": 4}, {"measurement": "Western Blot ROCK2 (heatmap grade of inhibition)", "setting": "[2]", "result": 4}, {"measurement": "Percentage of displacement of [125I]-1, relative to unlabeled peptide 1, ±SEM", "setting": "[3]", "result": "32.13 ± 16.94", "unit": "%"}, {"measurement": "Capacity to displace [125I]-1 compared to cold unlabeled peptide 1", "setting": "[3]; 100 μM cold peptide, 600 nM [125I]-peptide 1", "result": "significantly lower (p = 0.0011) ability to compete with radiolabeled peptide 1"}]}, {"substance": "H-D-Arg-D-Tyr-(3S,4R)-Hgl-D-Val-D-Glu-D-Leu-D-Ala-NH2 [[(3S,4R)-Hgl^3]-1]", "values": [{"measurement": "qPCR IL-1β (heatmap grade of inhibition)", "setting": "[1]", "result": 4}, {"measurement": "Western Blot ROCK2 (heatmap grade of inhibition)", "setting": "[2]", "result": 3}, {"measurement": "Percentage of displacement of [125I]-1, relative to unlabeled peptide 1, ±SEM", "setting": "[3]", "result": "78.64 ± 21.22", "unit": "%"}]}, {"substance": "H-D-Arg-D-Tyr-(R)-Agl-(S)-Val-D-Glu-D-Leu-D-Ala-NH2 [[(3R)-Agl^3-(S)-Val^4]-1]", "values": [{"measurement": "Suppression of IL-1β transcription", "setting": "[1]", "result": "ability to suppress the transcription of all three genes was lost"}, {"measurement": "qPCR IL-1β (heatmap grade of inhibition)", "setting": "[1]", "result": 1}, {"measurement": "Western Blot ROCK2 (heatmap grade of inhibition)", "setting": "[2]", "result": 2}, {"measurement": "Percentage of displacement of [125I]-1, relative to unlabeled peptide 1, ±SEM", "setting": "[3]", "result": "120.7 ± 15.69", "unit": "%"}]}, {"substance": "H-D-Arg-D-Tyr-(R)-Agl-D-Val-D-Glu-D-Leu-D-Ala-NH2 [[(3R)-Agl^3]-1]", "values": [{"measurement": "qPCR IL-1β (heatmap grade of inhibition)", "setting": "[1]", "result": 4}, {"measurement": "Western Blot ROCK2 (heatmap grade of inhibition)", "setting": "[2]", "result": 0}, {"measurement": "Percentage of displacement of [125I]-1, relative to unlabeled peptide 1, ±SEM", "setting": "[3]", "result": "83.55 ± 9.02", "unit": "%"}]}, {"substance": "H-D-Arg-D-Tyr-(S)-Agl-(S)-Val-D-Glu-D-Leu-D-Ala-NH2 [[(3S)-Agl^3-(S)-Val^4]-1]", "values": [{"measurement": "Suppression of IL-1β transcription", "setting": "[1]", "result": "ability to suppress the transcription of all three genes was lost"}, {"measurement": "qPCR IL-1β (heatmap grade of inhibition)", "setting": "[1]", "result": 1}, {"measurement": "Western Blot ROCK2 (heatmap grade of inhibition)", "setting": "[2]", "result": 3}, {"measurement": "Percentage of displacement of [125I]-1, relative to unlabeled peptide 1, ±SEM", "setting": "[3]", "result": "102.7 ± 8.637", "unit": "%"}]}, {"substance": "H-D-Arg-D-Tyr-(S)-Agl-D-Val-D-Glu-D-Leu-D-Ala-NH2 [[(3S)-Agl^3]-1]", "values": [{"measurement": "qPCR IL-1β (heatmap grade of inhibition)", "setting": "[1]", "result": 4}, {"measurement": "Western Blot ROCK2 (heatmap grade of inhibition)", "setting": "[2]", "result": 0}, {"measurement": "Percentage of displacement of [125I]-1, relative to unlabeled peptide 1, ±SEM", "setting": "[3]", "result": "106.6 ± 12.39", "unit": "%"}]}, {"substance": "H-D-Arg-D-Tyr-D-Thr-D-Val-D-Glu-D-Leu-D-Ala-NH2 [Peptide 1]", "values": [{"measurement": "Suppression of IL-1β transcription", "setting": "[1]", "result": "strong suppression of transcription of all three genes"}, {"measurement": "qPCR IL-1β (heatmap grade of inhibition)", "setting": "[1]", "result": 4}, {"measurement": "Western Blot ROCK2 (heatmap grade of inhibition)", "setting": "[2]", "result": 4}, {"measurement": "Inhibition of IL-1β-induced ROCK2 phosphorylation", "setting": "[2]; RAW-blue cells, 10^-6 M, 30 min, then IL-1β 15 min", "result": "inhibited the effects of all three kinases"}]}, {"substance": "Kineret: FDA-approved recombinant IL-1 receptor antagonist", "values": [{"measurement": "qPCR IL-1β (heatmap grade of inhibition)", "setting": "[1]", "result": 4}, {"measurement": "Western Blot ROCK2 (heatmap grade of inhibition)", "setting": "[2]", "result": 4}]}]}
